Assay results reported in ChEMBL document CHEMBL4330075, “Discovery of Novel Quinoline-Chalcone Derivatives as Potent Antitumor Agents with Microtubule Polymerization Inhibitory Activity” (J Med Chem, 2019).
pIC50: −log10 of the molar value. Converted amounts (≈) assume the structure as drawn.

Tests used:
[1] = Renal toxicity in ICR mouse xenografted with […] cells at 10 to 20 mg/kg, iv qd for 21 consecutive days by H and E staining-based assay; type: organism-based; settings: in vivo
[2] = Toxicity in ICR mouse assessed as mouse survival at 409.6 mg/kg, iv for 14 days relative to control; type: organism-based; settings: in vivo
K562 [3] = assay: Cell cycle arrest in human K562 cells assessed as accumulation of cells at G1 phase at 20 nM after 48 hrs by propidium iodide staining-based flow cytometric analysis (reference value: 47.91%); type: functional
K562 [4] = assay: Cell cycle arrest in human K562 cells assessed as accumulation of cells at S phase at 10 nM after 48 hrs by propidium iodide staining-based flow cytometric analysis (reference value: 36.27%); type: functional
HUVEC = assay: Antiproliferative activity against human HUVEC cells after 24 hrs by MTT assay; type: cell-based
K562 [5] = assay: Cell cycle arrest in human K562 cells assessed as accumulation of cells at G2 phase at 10 nM after 48 hrs by propidium iodide staining-based flow cytometric analysis (reference value: 15.82%); type: functional
K562 [6] = assay: Induction of apoptosis in human K562 assessed as necrotic cells at 10 nM after 48 hrs by Annexin V-APC/propidium iodide staining-based flow cytometric analysis (reference value: 1.92%); type: functional
K562 [7] = assay: Induction of apoptosis in human K562 assessed as early apoptotic cells at 10 nM after 48 hrs by Annexin V-APC/propidium iodide staining-based flow cytometric analysis (reference value: 4.44%); type: functional
K562 [8] = assay: Induction of mitochondrial membrane potential disruption in human K562 cells assessed as collapsed mitochondrial membrane potential at 10 nM after 48 hrs by JC-1 staining-based flow cytometric analysis (reference value: 0.63%); type: functional
K562 [9] = assay: Cell cycle arrest in human K562 cells assessed as accumulation of cells at G2 phase at 5 nM after 48 hrs by propidium iodide staining-based flow cytometric analysis (reference value: 15.82%); type: functional
[10] = Toxicity in ICR mouse assessed as mouse survival at 512 mg/kg, iv for 14 days relative to control; type: organism-based; settings: in vivo
K562 [11] = assay: Cell cycle arrest in human K562 cells assessed as accumulation of cells at G2 phase at 20 nM after 48 hrs by propidium iodide staining-based flow cytometric analysis (reference value: 15.82%); type: functional
K562 [12] = assay: Induction of mitochondrial membrane potential disruption in human K562 cells assessed as collapsed mitochondrial membrane potential at 20 nM after 48 hrs by JC-1 staining-based flow cytometric analysis (reference value: 0.63%); type: functional
[13] = Hepatotoxicity in ICR mouse xenografted with […] cells at 10 to 20 mg/kg, iv qd for 21 consecutive days by H and E staining-based assay; type: toxicity, organism-based; settings: in vivo
K562 [14] = assay: Cell cycle arrest in human K562 cells assessed as accumulation of cells at G1 phase at 5 nM after 48 hrs by propidium iodide staining-based flow cytometric analysis (reference value: 47.91%); type: functional
Tubulin = Tubulin (Sus scrofa, UniProt P02554+P02550); assay: Inhibition of porcine brain tubulin polymerization measured every 2 mins for 60 mins by spectrophotometric analysis
K562 [15] = assay: Induction of apoptosis in human K562 assessed as viable cells at 5 nM after 48 hrs by Annexin V-APC/propidium iodide staining-based flow cytometric analysis (reference value: 92.34%); type: functional; settings: K562, 48 h, read-out: Activity
L02 = assay: Cytotoxicity against human LO2 cells after 72 hrs by MTT assay; type: cell-based; settings: L02, 72 h
K562 [16] = assay: Induction of apoptosis in human K562 assessed as late apoptotic cells at 20 nM after 48 hrs by Annexin V-APC/propidium iodide staining-based flow cytometric analysis (reference value: 1.30%); type: functional
[17] = Cardiotoxicity in ICR mouse xenografted with […] cells at 10 to 20 mg/kg, iv qd for 21 consecutive days by H and E staining-based assay; type: toxicity, organism-based; settings: in vivo
KB = assay: Antiproliferative activity against human KB cells after 72 hrs by MTT assay; type: functional, cell-based
K562 [18] = assay: Induction of apoptosis in human K562 assessed as late apoptotic cells at 10 nM after 48 hrs by Annexin V-APC/propidium iodide staining-based flow cytometric analysis (reference value: 1.30%); type: functional
[19] = Selectivity index, ratio of IC50 for human LO2 cells to IC50 for human HepG2 cells; type: toxicity; settings: LO2 cells and HepG2 cells, read-out: Ratio IC50
K562 [20] = assay: Induction of apoptosis in human K562 assessed as early apoptotic cells at 20 nM after 48 hrs by Annexin V-APC/propidium iodide staining-based flow cytometric analysis (reference value: 4.44%); type: functional
K562 [21] = assay: Induction of mitochondrial membrane potential disruption in human K562 cells assessed as intact mitochondrial membrane potential at 10 nM after 48 hrs by JC-1 staining-based flow cytometric analysis (reference value: 99.12%); type: functional
K562 [22] = assay: Cell cycle arrest in human K562 cells assessed as accumulation of cells at S phase at 5 nM after 48 hrs by propidium iodide staining-based flow cytometric analysis (reference value: 36.27%); type: functional
K562 [23] = assay: Induction of mitochondrial membrane potential disruption in human K562 cells assessed as intact mitochondrial membrane potential at 5 nM after 48 hrs by JC-1 staining-based flow cytometric analysis (reference value: 99.12%); type: functional
K562 [24] = assay: Induction of mitochondrial membrane potential disruption in human K562 cells assessed as collapsed mitochondrial membrane potential at 5 nM after 48 hrs by JC-1 staining-based flow cytometric analysis (reference value: 0.63%); type: functional
[25] = Toxicity in ICR mouse xenografted with […] cells assessed as decrease in body weight at 10 to 20 mg/kg, iv qd administered for 21 days and measured every 2 days; type: organism-based; settings: in vivo
[26] = Toxicity in iv dosed ICR mouse assessed as mouse survival for 14 days; type: organism-based; settings: in vivo
K562 [27] = assay: Induction of apoptosis in human K562 assessed as viable cells at 10 nM after 48 hrs by Annexin V-APC/propidium iodide staining-based flow cytometric analysis (reference value: 92.34%); type: functional; settings: K562, 48 h, read-out: Activity
K562 [28] = assay: Induction of apoptosis in human K562 assessed as viable cells at 20 nM after 48 hrs by Annexin V-APC/propidium iodide staining-based flow cytometric analysis (reference value: 92.34%); type: functional; settings: K562, 48 h, read-out: Activity
K562 [29] = assay: Cell cycle arrest in human K562 cells assessed as accumulation of cells at G1 phase at 10 nM after 48 hrs by propidium iodide staining-based flow cytometric analysis (reference value: 47.91%); type: functional
K562 [30] = assay: Induction of apoptosis in human K562 assessed as early apoptotic cells at 5 nM after 48 hrs by Annexin V-APC/propidium iodide staining-based flow cytometric analysis (reference value: 4.44%); type: functional
MDA-MB-231 = assay: Antiproliferative activity against human MDA-MB-231 cells after 72 hrs by MTT assay; type: functional, cell-based; settings: MDA-MB-231, 72 h
K562 [31] = assay: Antiproliferative activity against human K562 cells after 72 hrs by MTT assay; type: functional, cell-based; settings: K562, 72 h
[32] = Toxicity in ICR mouse assessed as mouse survival at 640 mg/kg, iv for 14 days relative to control; type: organism-based; settings: in vivo
[33] = Aqueous solubility in pH 7.4 phosphate buffer by HPLC analysis; type: physicochemical

## COc1ccc(/C=C(\C)C(=O)c2cc(C)nc3ccccc23)cc1O
[1]
  Activity: Non-Toxic
[2]
  survival at 336 h: 90%
K562 [3]
  Activity: 42.68%
K562 [4]
  Activity: 24.94%
HUVEC
  pIC50: 6.60
K562 [5]
  Activity: 22.85%
K562 [6]
  Activity: 2.77%
K562 [7]
  Activity: 23.15%
K562 [8]
  Activity: 26.2%
K562 [9]
  Activity: 18.04%
[10]
  survival at 336 h: 80%
K562 [11]
  Activity: 26.98%
K562 [12]
  Activity: 53.39%
[13]
  Activity: Non-Toxic
K562 [14]
  Activity: 50.41%
Tubulin
  IC50: 1710 nM
K562 [15]
  viability at 0.005 µM: 80.2%
L02
  pIC50: 6.01
K562 [16]
  Activity: 23.28%
[17]
  Activity: Non-Toxic
KB
  pIC50: 7.80
K562 [18]
  Activity: 11.4%
[19]
  selectivity ratio: 65.8
K562 [20]
  Activity: 36.86%
K562 [21]
  Activity: 73.8%
K562 [22]
  Activity: 31.55%
K562 [23]
  Activity: 84.97%
K562 [24]
  Activity: 15.02%
[25]
  Activity: Non-Toxic
[26]
  LD50 at 336 h: 666 mg/kg
K562 [27]
  viability at 0.01 µM: 62.7%
K562 [28]
  viability at 0.02 µM: 35%
K562 [29]
  Activity: 52.22%
K562 [30]
  Activity: 12.87%
MDA-MB-231
  pIC50: 7.82
K562 [31]
  pIC50: 8.05
[32]
  survival at 336 h: 60%
[33]
  solubility: 16 µg/mL (≈ 48 µM)
